Values quoted from earlier work in patent publication US20230051463A1, “Methotrexate Dosage Form” (ROS Therapeutics ApS, priority 2020, published 2023).
Like-named read-outs stand apart in the source and are kept apart here.

Legend:
[1] = oral

| SMILES | AUC(0-24) Geometric LS Mean ([1]; Methotrexate 10 mg) [ng·h/mL] | Cmax Geometric LS Mean ([1]; Methotrexate 10 mg) [ng/mL] | AUC(0-24) Geometric LS Mean ([1]; Methotrexate 15 mg) [ng·h/mL] | Cmax Geometric LS Mean ([1]; Methotrexate 15 mg) [ng/mL] | AUC(0-24) Geometric LS Mean ([1]; Methotrexate 20 mg) [ng·h/mL] | Cmax Geometric LS Mean ([1]; Methotrexate 20 mg) [ng/mL] | AUC(0-24) Geometric LS Mean ([1]; Methotrexate 25 mg) [ng·h/mL] | Cmax Geometric LS Mean ([1]; Methotrexate 25 mg) [ng/mL] | solubility in water |
| --- | --- | --- | --- | --- | --- | --- | --- | --- | --- |
| CN(Cc1cnc2nc(N)nc(N)c2n1)c1ccc(C(=O)N[C@@H](CCC(=O)O)C(=O)O)cc1 [Oral MTX] | 1223.7 | 247.2 | 1752.0 | 349.4 | 1927.2 | 440.4 | 1987.8 | 423.5 | – |
| CN(Cc1cnc2nc(N)nc(N)c2n1)c1ccc(C(=O)N[C@@H](CCC(=O)O)C(=O)O)cc1 [Methotrexate] | – | – | – | – | – | – | – | – | practically insoluble |
| CN(Cc1cnc2nc(N)nc(N)c2n1)c1ccc(C(=O)N[C@@H](CCC(=O)[O-])C(=O)[O-])cc1.[Na+].[Na+] [Methotrexate disodium] | – | – | – | – | – | – | – | – | freely soluble |
